According to US10716771B2, “Pharmaceutical composition for preventing or treating immune diseases or inflammatory diseases, containing biguanide derivative compound as active ingredient” (THE CATHOLIC UNIVERSITY OF KOREA INDUSTRY-ACADEMIC …, priority 2013, dated 2020):

Experiments:
[1] = Cytotoxicity (MTT) in lupus animal model; type: cell-based
Protocol: (§1) In order to examine cytotoxicity of the biguanide derivative compound of the present invention, an MTT assay was performed. Cells were isolated from the spleen in a normal mouse group and the isolated cells were incubated for 3 days in the concentration of 0.5 μg/ml of anti-CD3 or 100 ng/ml of LPS 100, and metformin, SD-196, SD-216 or SD-217 was treated for each concentration and incubated for 3 days. […] In order to evaluate a lupus therapeutic effect of the biguanide derivative compound of the present invention, in a lupus animal model, cytotoxicity, autoantibody generation, generation of inflammatory cytokines, and Th17 regulation were measured by the same method as Example 8.

IgG = IgG (autoantibody) ELISA, Example 8-2; type: cell-based, mouse; settings: incubated supernatant, compared with metformin
Protocol: In order to evaluate an arthritis therapeutic effect of the biguanide derivative compound of the present invention, in a rheumatoid arthritis animal model, cytotoxicity, generation of autoantibody, expression of inflammatory cytokines and regulatory T cells (Treg), and osteoclast differentiation were measured. Like Examples, metformin was used as a control group.
In order to examine an effect of suppressing the generation of autoantibody of the biguanide derivative compound of the present invention, the incubated supernatant was collected and the IgG expression degree was examined by using an ELISA. A monoclonal anti-IgG was reacted at 4° C. overnight in a 96-well plate and then a non-specific binding was blocked by a blocking solution. A mouse control serum was continuously diluted by 1/2 to be used as a standard, added with the cell-incubated supernatant, and reacted at room temperature for 2 hrs. Thereafter, HRP-anti-IgG was reacted at room temperature for 2 hrs, washed four times after reaction, added with the diluted HRP-conjugate, and reacted at room temperature for 2 hrs.

Foxp3+ Treg cells = test: Regulatory T cell (Treg) expression by flow cytometry, Example 8-3; type: cell-based, mouse; settings: anti-CD4, anti-CD25, anti Foxp3
Protocol: In order to evaluate an arthritis therapeutic effect of the biguanide derivative compound of the present invention, in a rheumatoid arthritis animal model, cytotoxicity, generation of autoantibody, expression of inflammatory cytokines and regulatory T cells (Treg), and osteoclast differentiation were measured. Like Examples, metformin was used as a control group. Further, in order to examine whether the biguanide derivative compound of the present invention activates the expression of regulatory T cells (Treg), the incubated cells were flow-cytometry by using anti-CD4-percp, anti-CD25-APC, and anti Foxp3-Pe fluorescent antibodies (ab), and as a result, it was verified that SD-196, 216 and 217 activated the Foxp3+ Treg cells (see FIG. 10).

TNF-α [2] = test: TNF-α generation in LPS-treated mouse spleen cells, ELISA; type: cell-based; settings: 2, 20, 200 μM with LPS 100 ng/ml, 3 days; compared with only LPS
Protocol: Spleen cells were obtained from a normal mouse of C57BL/6 (Orient Company, Korea). That is, the tissue of the spleen extracted from the mouse was finely grinded by using a teasing slide and then erythrocytes in the spleen were removed by an erythrocyte hemolysis solution. Thereafter, a PBS buffer solution was added, centrifuged, and washed to obtain spleen cells.
Since it is known that Metformin used as the diabetes therapeutic agent currently on the market has a slight effect of blocking TNF-α as the inflammatory cytokine, in order to verify whether the biguanide derivative compound of the present invention has activity of reducing the generation of TNF-α, the expression degree of TNF-α was measured by an ELISA assay. […]
In order to measure an amount of the generated TNF-α cytokine, a supernatant of the incubated cells was collected and the TNF-α generation degree was examined by using an ELISA. […] Thereafter, a PNPP/DEA solution was added and colored, and then the absorbance was measured at a wavelength of 405 nm.

TNF-α [3] = test: TNF-α expression in normal (human) cells; type: cell-based; settings: compared with metformin
Protocol: In order to evaluate an effect of suppressing the expression of the inflammatory cytokine of the biguanide derivative compound of the present invention, the incubated supernatant was collected and the expression degrees of IL-17 and TNF-α of a mouse were examined by using a sandwich ELISA. […] of a monoclonal anti-IL-17 or anti-TNF-α was reacted in a 96-well plate at 4° C. overnight and then a non-specific binding was blocked by a blocking solution (1% BSA/PBST) after the reaction. An IL-17 or TNF-α recombinant was continuously diluted by 1/2 to be used as a standard, added with the cell-incubated supernatant, and reacted at room temperature for 2 hrs. Thereafter, biotinylated anti-IL-17 or anti-TNF-α was added and reacted at room temperature for 2 hrs, washed four times after the reaction, diluted with a diluted ExtraAvidin-alkaline phosphatase conjugate, and reacted at room temperature for 2 hrs. After the reaction, a PNPP/DEA was added and colored, and absorbance was measured at a wavelength of 405 nm.
In order to evaluate a development possibility of the biguanide derivative compound of the present invention as an agent for preventing or treating immune diseases, effects of modulating cytotoxicity and generation of inflammatory cytokines by targeting normal cells were measured by the same method as Example 8.

normal cells = test: Cytotoxicity (MTT) in normal (human) cells; type: cell-based
Protocol: as §1, with “development possibility” for “lupus therapeutic effect”, “invention as an agent for preventing or treating immune diseases, effects of modulating cytotoxicity and” for “invention, in a lupus animal model, cytotoxicity, autoantibody generation,”, “cytokines by targeting normal cells” for “cytokines, and Th17 regulation”

| Structure (SMILES) | cytotoxicity [1] | expression of IgG (IgG) | Foxp3+ Treg cells (Foxp3+ Treg cells) | generated amount of TNF-α (TNF-α [2]) | expression of TNF-α (TNF-α [3]) | cytotoxicity (normal cells) |
| --- | --- | --- | --- | --- | --- | --- |
| CC(C)NC(=N)NC(=N)N [SD-000196, 1-isopropylbiguanide] | no cytotoxicity | significantly suppressed | activated | – | – | – |
| N=C(N)NC(=N)Nc1ccc(F)cc1F [SD-000217, 1-(2,4-difluorophenyl)biguanide] | no cytotoxicity | significantly suppressed | activated | very significantly reduced | suppressed | no cytotoxicity |
| NC(N)=N/C(N)=N/c1cccc(F)c1 [SD-000216, 1-(3-fluorophenyl)biguanide] | no cytotoxicity | significantly suppressed | activated | very significantly reduced | suppressed | no cytotoxicity |
